Source: ChEMBL document CHEMBL5390228, “Unnatural Endotype B PPAPs as Novel Compounds with Activity against Mycobacterium tuberculosis” (J Med Chem, 2023)

Test system: Mycobacterium tuberculosis
Assay: Antimicrobial activity in INH-resistant Mycobacterium tuberculosis ATCC 35822 infected in human Primary macrophage cells assessed as reduction in intracellular growth of bacteria incubated for 4 days by CFU assay
Type: functional, organism-based
Details: ATCC 35822, Primary macrophage, 96 h

Structure (SMILES): C=CC[C@@]12C[C@H](CC=C(C)C)C(C)(C)[C@@](CC=C)(C(=O)C(C(C)=O)=C1[O-])C2=O.[Na+]
- IC50: 15.9 µM
